The record followed here is patent US20220387604A1, “SELECTIVE DUAL HISTONE DEACETYLASE 6/8 (HDAC6/8) DEGRADERS AND METHODS OF USE THEREOF” (DANA-FARBER CANCER INSTITUTE, INC., priority 2019, published 2022).

In this assay the target is T1, HDAC7 (Homo sapiens, UniProt Q8WUI4).
T1 construct: purchased Reaction Biology
T1 sequence (Q8WUI4 1-952): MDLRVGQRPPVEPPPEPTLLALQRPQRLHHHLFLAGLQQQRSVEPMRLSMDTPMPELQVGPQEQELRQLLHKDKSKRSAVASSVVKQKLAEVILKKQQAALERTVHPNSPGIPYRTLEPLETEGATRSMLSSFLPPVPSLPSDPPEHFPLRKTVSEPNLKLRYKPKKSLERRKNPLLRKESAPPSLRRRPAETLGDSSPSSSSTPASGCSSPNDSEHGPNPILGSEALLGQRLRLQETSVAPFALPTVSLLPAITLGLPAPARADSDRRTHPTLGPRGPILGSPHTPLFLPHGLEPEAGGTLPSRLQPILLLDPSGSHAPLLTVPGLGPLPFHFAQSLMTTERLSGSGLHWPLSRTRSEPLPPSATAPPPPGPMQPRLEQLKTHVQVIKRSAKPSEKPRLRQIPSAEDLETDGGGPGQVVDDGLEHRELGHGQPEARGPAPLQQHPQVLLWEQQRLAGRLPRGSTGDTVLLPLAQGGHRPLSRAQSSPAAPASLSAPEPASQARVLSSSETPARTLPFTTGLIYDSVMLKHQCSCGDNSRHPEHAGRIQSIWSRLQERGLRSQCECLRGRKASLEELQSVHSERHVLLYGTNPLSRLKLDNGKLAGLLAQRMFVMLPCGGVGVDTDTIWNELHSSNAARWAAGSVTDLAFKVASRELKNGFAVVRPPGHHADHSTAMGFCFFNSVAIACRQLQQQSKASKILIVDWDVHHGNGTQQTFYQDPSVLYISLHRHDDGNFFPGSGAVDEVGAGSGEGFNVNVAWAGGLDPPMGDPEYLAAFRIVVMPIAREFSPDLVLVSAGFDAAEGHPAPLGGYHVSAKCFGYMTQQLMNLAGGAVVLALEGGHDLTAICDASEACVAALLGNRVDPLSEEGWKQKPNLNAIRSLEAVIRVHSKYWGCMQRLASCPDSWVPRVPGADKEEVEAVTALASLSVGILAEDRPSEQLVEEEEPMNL
The assay is described as follows: HDAC enzymatic assay (Reaction Biology), HDAC7. As to conditions: summary of Table 1. The format is biochemical. The method, then: Compound 1 was tested in an enzymatic assay from Reaction Biology® against 10 HDAC isoforms. The IC50 values were derived from a 10-dose response curve.
Base Reaction buffer: 50 mM Tris-HCl, pH8.0, 137 mM NaCl, 2.7 mM KCl, and 1 mM MgCl2, Add fresh: 1 mg/ml BSA, 1% DMSO
Class2A Substrate (HDAC4, HDAC5, HDAC7, and HDAC9): Boc-Lys(trifluoroacetyl)-AMC
1. Delivered 2× enzyme in wells of reaction plate except in the control wells and added buffer to control wells. 2. Delivered compounds in 100% DMSO into the enzyme mixture by Acoustic technology (Echo550; nanoliter range). Spin down and pre-incubation. 3. Delivered 2× Substrate Mixture (Fluorogenic HDAC Substrate and co-factor if applicable) in all reaction wells to initiate the reaction. Spin and shake. 4. Incubated for 30 min for Class 2A, 1 h for HDAC1, 2, 3, and 6, and 2 h for the rest of HDAC isoforms and SIRTs at 30° C. with seal.
5. Added Developer with Trichostatin A (or Nicotinamide for SIRTs) to stop the reaction and to generate fluorescent color. 6. The fluorescence that was generated was detected with excitation (Ex) at […] and emission (Em) at 460 nM by the EnVision Multilabel Plate Reader (PerkinElmer®, Santa Clara, Calif., USA).
IC50 values were derived from a 10-dose response curve.

For the compound `O=C(/C=C/c1ccc(CN(CCOCCOCCNc2cccc3c2C(=O)N(C2CCC(=O)NC2=O)C3=O)CCc2c[nH]c3ccccc23)cc1)NO` (stereo not shown) [Compound 1, (E)-3-(4-(((2-(1H-indol-3-yl)ethyl)(2-(2-(2-((2-(2,6-dioxopiperidin-3-yl)-1,3-dioxoisoindolin-4-yl)amino)ethoxy)ethoxy)ethyl)amino)methyl)phenyl)-N-hydroxyacrylamide], the “inhibition of enzymatic activity of HDAC7 (in words)” value is “did not inhibit”.
